In US8350048B2, “Amide compounds as boosters of antivirals” (Janssen R&D Ireland, priority 2007, dated 2013):

How the values were obtained:
[1] = test system: wild-type HIV-1IIIB strain; experiment: Antiviral activity, MT4 LTR-EGFP cellular assay; assay type: cell-based; details: Human immunodeficiency virus 1, 72 h; wild-type HIV-1 IIIB, MT4 LTR-EGFP cells, three days after infection; read-out: Antiviral activity IIIB (pEC50) (converted)
Method: (§1) Assay 1 &2: Antiviral Activity/Toxicity
The compounds of the present invention were tested for antiviral activity in a cellular assay, which was performed according to the following procedure.
The human T-cell line MT4 is engineered with Green Fluorescent Protein (GFP) and an HIV-specific promoter, HIV-1 long terminal repeat (LTR). This cell line is designated MT4 LTR-EGFP, and can be used for the in vitro evaluation of anti-HIV activity of investigational compounds. In HIV-1 infected cells, the Tat protein is produced which upregulates the LTR promotor and finally leads to stimulation of the GFP reporter production, allowing measuring ongoing HIV-infection fluorometrically.
(§2) The ratio of CC50 to EC50 is defined as the selectivity index (SI) and is an indication of the selectivity of the anti-HIV activity of the inhibitor. The ultimate monitoring of HIV-1 infection and cytotoxicity is done using a scanning microscope. Image analysis allows very sensitive detection of viral infection. Measurements are done before cell necrosis, which usually takes place about five days after infection, in particular measurements are performed three days after infection.
(§3) A pEC50 value corresponds to −log10(EC50). A pCC50 value corresponds to −log10(CC50).

CYP3A4 [2] = target: T1, CYP3A4 (Homo sapiens, UniProt P08684); experiment: CYP450 inhibition CDNA-CYP3A4-BFC; details: human, E. coli expressed CYP3A4, pH 7.4, probe BFC 150 μM
T1 sequence (P08684 whole entry): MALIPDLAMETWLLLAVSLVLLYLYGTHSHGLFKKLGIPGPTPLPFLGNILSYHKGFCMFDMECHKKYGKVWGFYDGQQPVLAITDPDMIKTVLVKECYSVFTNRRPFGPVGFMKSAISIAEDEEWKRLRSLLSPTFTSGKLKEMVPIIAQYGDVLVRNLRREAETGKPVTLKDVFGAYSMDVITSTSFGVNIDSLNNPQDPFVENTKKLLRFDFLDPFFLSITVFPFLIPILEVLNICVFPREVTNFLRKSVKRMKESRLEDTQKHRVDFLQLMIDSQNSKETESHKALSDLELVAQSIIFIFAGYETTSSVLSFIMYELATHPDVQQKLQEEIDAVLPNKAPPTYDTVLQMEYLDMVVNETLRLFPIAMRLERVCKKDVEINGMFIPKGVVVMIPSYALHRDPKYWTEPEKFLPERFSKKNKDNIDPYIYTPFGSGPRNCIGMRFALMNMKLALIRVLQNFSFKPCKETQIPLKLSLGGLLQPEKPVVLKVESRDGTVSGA
Description: (§4) Assay 4: CYP450 Inhibition

[3] = Metabolic stability of test compounds (HLM15'); assay type: in vitro ADME, human; details: pH 7.4; human liver microsomes 1 mg/ml, 5 μM test compound, 15 min; read-out: Metabolic stability (HLM, % recovery after 15')
Description: Human liver tissue is rinsed in ice-cold 0.1 M Tris-HCl (pH 7.4) buffer to wash excess blood. Tissue is then blotted dry, weighed and chopped coarsely using surgical scissors. The tissue pieces are homogenized in 3 volumes of ice-cold 0.1 M phosphate buffer (pH 7.4) using either a Potter-S (Braun, Italy) equipped with a Teflon pestle or a Sorvall Omni-Mix homogenizer, for 7×10 sec. In both cases, the vessel is kept in/on ice during the homogenization process. Tissue homogenates are centrifuged at 9000×g for 20 min at 4° C. using a Sorvall centrifuge or Beckman Ultracentrifuge. The resulting supernatant can be stored at −80° C. and is designated ‘S9’. The S9 fraction is centrifuged at 100,000×g for 60 min at 4° C. using a Beckman ultracentrifuge. The resulting supernatant is carefully aspirated, aliquoted and designated ‘cytosol’. The pellet is re-suspended in 0.1 M phosphate buffer (pH 7.4) in a final volume of 1 ml per 0.5 g original tissue weight and designated ‘microsomes’. All sub-cellular fractions are aliquoted, immediately frozen in liquid nitrogen and stored at −80° C. until use.
Heat-inactivated (10 min at 95° C.) ‘S9’ or microsomes were used for blank experiments. […] The reaction was incubated for 0 or 15 min. Next, the reaction was stopped by addition of 2 volumes of DMSO (or acetonitrile). Samples were centrifuged (10 min, 900×g) and analyzed by LC-MS.

CYP2C19 = CYP2C19 (Homo sapiens, UniProt P33261); experiment: in vitro; details: E. coli expressed CYP2C19, pH 7.4, probe CEC 25 μM
Chain of CYP2C19 (P33261 whole entry): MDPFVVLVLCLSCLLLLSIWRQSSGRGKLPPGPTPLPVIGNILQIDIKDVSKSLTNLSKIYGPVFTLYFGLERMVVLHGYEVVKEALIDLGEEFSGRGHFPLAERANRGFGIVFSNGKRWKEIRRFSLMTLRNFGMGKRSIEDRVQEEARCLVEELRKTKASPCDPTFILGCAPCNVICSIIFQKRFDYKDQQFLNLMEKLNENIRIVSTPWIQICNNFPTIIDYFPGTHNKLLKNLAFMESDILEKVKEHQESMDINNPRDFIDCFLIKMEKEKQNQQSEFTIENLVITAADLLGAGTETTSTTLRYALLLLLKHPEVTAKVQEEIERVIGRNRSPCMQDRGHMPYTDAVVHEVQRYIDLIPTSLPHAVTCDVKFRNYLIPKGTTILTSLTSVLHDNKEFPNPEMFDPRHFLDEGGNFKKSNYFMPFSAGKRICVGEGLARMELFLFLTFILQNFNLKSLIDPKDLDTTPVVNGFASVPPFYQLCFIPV
Method: (§5) Inhibition of the metabolism of test compounds by different CYP P450 isoenzymes was determined using E. coli expressed proteins (3A4, 2C9, 2D6, 1A2, and 2C19) that convert their specific substrates into a fluorescent molecule (Table 6). This fluorescent molecule was measured using a fluorescent plate reader (Victor2 (Wallac) or Fluoroskan (Labsystems)). […] CYP P450 enzymes were prepared in house or commercially bought and stored at −80° C.
(§6) The assay was performed in black 96 well Costar plates. Test compounds were added to a CYP P450 enzyme solution in the presence of an NADPH generating system. After 5 min of preincubation at 37° C., the freshly prepared, phosphate buffered (pH 7.4) substrate solution was added. Known CYP P450 inhibitors were used as positive controls, negative controls were run without CYP P450 enzyme. […] Reaction mixtures were incubated at 37° C. for 30 min (CYP3A4-BFC), 30 min (CYP3A4-BQ), 10 min (CYP3A4-DBF), 15 min (CYP1A2-CEC), 30 min (CYP2C9-MFC, CYP2C19-CEC), or 45 min (CYP2D6-AMMC), respectively. Then, the reaction was stopped by the addition of 200 μl acetonitrile, and the fluorescent signal was detected.
(§7) Calculation of CYP P450 isoenzyme inhibition (% inh.):
(§8) % activity=(100/(average positive control−average negative control))×(average sample−average negative control)

CYP2C9 = CYP2C9 (Homo sapiens, UniProt P11712); experiment: in vitro; details: human, pH 7.4
Chain of CYP2C9 (P11712 whole entry): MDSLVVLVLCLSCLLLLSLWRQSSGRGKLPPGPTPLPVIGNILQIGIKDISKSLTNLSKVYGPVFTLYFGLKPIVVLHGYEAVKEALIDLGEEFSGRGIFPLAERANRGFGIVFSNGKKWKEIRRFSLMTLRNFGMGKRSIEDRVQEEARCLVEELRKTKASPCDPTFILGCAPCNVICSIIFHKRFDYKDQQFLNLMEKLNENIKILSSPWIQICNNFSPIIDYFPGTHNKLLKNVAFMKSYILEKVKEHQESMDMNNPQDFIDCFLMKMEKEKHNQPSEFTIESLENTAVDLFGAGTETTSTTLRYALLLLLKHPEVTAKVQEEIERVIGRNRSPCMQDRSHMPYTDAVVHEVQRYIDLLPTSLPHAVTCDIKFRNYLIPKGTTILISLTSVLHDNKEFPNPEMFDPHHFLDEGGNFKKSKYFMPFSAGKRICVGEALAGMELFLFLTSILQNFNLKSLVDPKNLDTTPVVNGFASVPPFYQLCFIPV
Description: as §4

CYP3A4 [4] = target: T1, CYP3A4; experiment: in vitro; details: human, pH 7.4
Description: as §4

CYP1A2 = target: T2, CYP1A2 (Homo sapiens, UniProt P05177); experiment: in vitro; details: E. coli expressed CYP1A2, pH 7.4, probe CEC 5 μM
T2 sequence (P05177 1-516): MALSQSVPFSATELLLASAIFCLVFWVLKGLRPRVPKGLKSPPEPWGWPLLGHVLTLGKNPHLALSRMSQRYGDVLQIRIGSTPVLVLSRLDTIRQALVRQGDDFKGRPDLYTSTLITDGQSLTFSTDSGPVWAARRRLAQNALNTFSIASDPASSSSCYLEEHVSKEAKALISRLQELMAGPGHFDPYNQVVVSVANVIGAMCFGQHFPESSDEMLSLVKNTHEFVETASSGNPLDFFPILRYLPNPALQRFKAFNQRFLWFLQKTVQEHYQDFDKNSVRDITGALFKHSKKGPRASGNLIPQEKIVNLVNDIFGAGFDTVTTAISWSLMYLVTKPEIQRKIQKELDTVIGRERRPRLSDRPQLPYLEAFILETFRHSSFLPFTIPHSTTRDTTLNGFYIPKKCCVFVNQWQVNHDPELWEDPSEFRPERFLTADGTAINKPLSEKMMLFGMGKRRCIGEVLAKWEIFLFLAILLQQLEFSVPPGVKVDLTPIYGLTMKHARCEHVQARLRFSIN
Method: as §5, §6, §7, §8

[5] = Toxicity, mock-infected MT4 CMV-EGFP cells; assay type: cell-based, human; details: human, mock-infected MT4 CMV-EGFP cells; read-out: Toxicity MT4 (pCC50) (converted)
Description: as §1
Analogously, MT4 cells are engineered with GFP and the constitutional cytomegalovirus (CMV) promotor. […] Cytotoxic investigational compounds reduce GFP levels of mock-infected MT4 CMV-EGFP cells.
as §2, §3

CYP3A4 [6] = target: T1, CYP3A4; experiment: CYP450 inhibition CDNA-CYP3A4-BQ; details: human, E. coli expressed CYP3A4, pH 7.4, probe BQ 60 μM
Description: as §4

CYP2D6 = CYP2D6 (Homo sapiens, UniProt P10635); experiment: in vitro; details: pH 7.4
Chain of CYP2D6 (P10635 whole entry): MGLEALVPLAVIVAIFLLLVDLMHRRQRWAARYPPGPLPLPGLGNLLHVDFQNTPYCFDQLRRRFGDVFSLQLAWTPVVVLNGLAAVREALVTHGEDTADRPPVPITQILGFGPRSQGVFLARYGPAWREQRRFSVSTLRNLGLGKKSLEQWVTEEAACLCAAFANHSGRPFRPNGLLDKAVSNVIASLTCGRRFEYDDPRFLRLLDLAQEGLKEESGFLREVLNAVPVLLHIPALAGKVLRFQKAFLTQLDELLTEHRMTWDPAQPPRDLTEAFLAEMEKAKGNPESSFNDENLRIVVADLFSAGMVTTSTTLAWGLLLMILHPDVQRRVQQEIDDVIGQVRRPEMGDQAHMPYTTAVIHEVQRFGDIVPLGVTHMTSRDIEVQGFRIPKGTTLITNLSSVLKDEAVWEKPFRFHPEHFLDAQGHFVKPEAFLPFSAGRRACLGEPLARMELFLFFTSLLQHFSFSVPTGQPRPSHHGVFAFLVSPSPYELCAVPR
Method: as §5, §6, §7, §8

Compound	EC50 [1]	inhibition at 30 min, 10 μM (CYP3A4 [2])	recovery at 15 min, 5 μM [3]	inhibition at 30 min, 10 μM (CYP2C19)	inhibition at 30 min, 10 μM (CYP2C9)	inhibition at 10 min, 10 μM (CYP3A4 [4])	inhibition at 15 min, 10 μM (CYP1A2)	inhibition at 30 min, 10 μM (CYP3A4 [6])	inhibition at 45 min, 10 μM (CYP2D6)	CC50 at 3 days [5]
CC(C)CN(C[C@@H](O)[C@H](Cc1ccccc1)NC(=O)OCc1cncs1)C(=O)c1ccc2ncn(C)c2c1 [Compound C8, Thiazol-5-ylmethyl (2S,3R)-3-hydroxy-4-(N-isobutyl-1-methyl-1H-benzo[d]-imidazole-6-carboxamido)-1-phenylbutan-2-ylcarbamate]	> 100 µM	81%	57%	75%	92%	93%	4%	72%	12%	> 100 µM
CC(C)CN(C[C@@H](O)[C@H](Cc1ccccc1)NC(=O)OCc1cncs1)C(=O)c1ccc2nc(N3CCCCC3)oc2c1 [Compound C3, Thiazol-5-ylmethyl (2S,3R)-3-hydroxy-4-(N-isobutyl-2-(piperidin-1y1)-benzo[d]oxazole-6-carboxamido)-1-phenylbutan-2-ylcarbamate]	36.3 µM	95%	71%	90%	100%	95%	19%	80%	45%	32.4 µM
CC(C)CN(C[C@@H](O)[C@H](Cc1ccccc1)NC(=O)OCc1cncs1)C(=O)c1ccc2nc(N)sc2c1 [Compound C6, Thiazol-5-ylmethyl (2S,3R)-4-(2-amino-N-isobutylbenzo[d]thiazole-6-carboxamido)-3-hydroxy-1-phenylbutan-2-ylcarbamate]	75.9 µM	76%	70%	94%	99%	94%	36%	85%	83%	> 93.3 µM
CC(C)CN(C[C@@H](O)[C@H](Cc1ccccc1)NC(=O)OCc1cncs1)C(=O)c1ccc2nc(NCCN(C)C)oc2c1 [Compound C16, Thiazol-5-ylmethyl (2S,3R)-4-(2-(2-(dimethylamino)ethylamino)-N-isobutyl-benzo[d]oxazole-6-carboxamido)-3-hydroxy-1-phenylbutan-2-ylcarbamate]	> 100 µM	93%	59%	36%	34%	91%	0%	80%	89%	> 100 µM
CC(C)CN(C[C@@H](O)[C@H](Cc1ccccc1)NC(=O)OCc1cncs1)C(=O)c1ccc2nc(N3CCN(C)CC3)oc2c1 [Compound C15, Thiazol-5-ylmethyl (2S,3R)-3-hydroxy-4-(N-isobutyl-2-(4-methylpiperazin-1-yl)benzo[d]oxazole-6-carboxamido)-1-phenylbutan-2-ylcarbamate]	> 100 µM	98%	25%	67%	96%	93%	18%	79%	97%	> 100 µM
CCN(C)c1nc2ccc(C(=O)N(CC(C)C)C[C@@H](O)[C@H](Cc3ccccc3)NC(=O)OCc3ccncc3)cc2o1 [Compound C10, Pyridin-4-ylmethyl (2S,3R)-4-(2-(ethyl(methyl)amino)-N-isobutylbenzo[d]-oxazole-6-carboxamido)-3-hydroxy-1-phenylbutan-2-ylcarbamate]	49 µM	91%	13%	70%	93%	95%	18%	71%	99%	46.8 µM

The next lines start with results.

EC50 [1]	inhibition at 30 min, 10 μM (CYP3A4 [2])	recovery at 15 min, 5 μM [3]	inhibition at 30 min, 10 μM (CYP2C19)	inhibition at 30 min, 10 μM (CYP2C9)	inhibition at 10 min, 10 μM (CYP3A4 [4])	inhibition at 15 min, 10 μM (CYP1A2)	inhibition at 30 min, 10 μM (CYP3A4 [6])	inhibition at 45 min, 10 μM (CYP2D6)	Compound	CC50 at 3 days [5]
60.3 µM	96%	57%	101%	96%	96%	7%	76%	59%	C#CCN(C[C@@H](O)[C@H](Cc1ccccc1)NC(=O)OCc1cncs1)C(=O)c1ccc2nc(N(C)CC)oc2c1 [Compound C35, Thiazol-5-ylmethyl (2S,3R)-4-(2-(ethyl(methyl)amino)-N-(prop-2-ynyl)benzo[d]oxazole-6-carboxamido)-3-hydroxy-1-phenylbutan-2-ylcarbamate]	75.9 µM
> 100 µM	90%	58%	97%	99%	94%	6%	77%	32%	CCN(C[C@@H](O)[C@H](Cc1ccccc1)NC(=O)OCc1cncs1)C(=O)c1ccc2nc(N(C)CC)oc2c1 [Compound C29, Thiazol-5-ylmethyl (2S,3R)-4-(N-ethyl-2-(ethyl(methyl)amino)benzo[d]-oxazole-6-carboxamido)-3-hydroxy-1-phenylbutan-2-ylcarbamate]	81.3 µM
> 100 µM	95%	67%	81%	93%	92%	7%	76%	77%	CC(C)CN(C[C@@H](O)[C@H](Cc1ccccc1)NC(=O)OCc1cncs1)C(=O)c1ccc2ncoc2c1 [Compound C38, Thiazol-5-ylmethyl (2S,3R)-3-hydroxy-4-(N-isobutylbenzo[d]oxazole-6-carboxamido)-1-phenylbutan-2-ylcarbamate]	> 100 µM
